Data on one compound can be found in patent US5130327A, “Indole derivatives” (Consejo Superior de Investigaciones Cientificas, priority 1989, dated 1992).

Read-outs that look alike come from different tables or passages of the source.

Data set [1] is described as follows: Behavioural Despair (Porsolt's test). Format: in vivo. As to the method:
The pharmacological profile was carried out assessing the antidepressant activity with the following tests:
Behavioural Despair (Porsolt et al. Arch. Int. Pharmacodyn; 229:327-336, 1977),

Data set [2] can be described thus: Interaction with clonidine-induced hypoactivity. Type of data set: in vivo. The text has this:
The action mechanism was studied in acute and chronic treatments on the interaction response with clonidine, salbutamol (Richard, J. Intern. J. Neuroscience, 9:17-19, 1979) and tetrabenazine (Pletscher, A.: An. N.Y. Aca. Sci. 80:1039-1045, 1959), and the response to the potentiation with L-dopa, L-tryptophan, tryptamine (Jalfre, M. et al., Arch. Int. Pharmacodyn, 159:194-221, 1982) and β-phenylethylamine (Ortmann, et al, Psychopharmacol. 84:22-27, 1984).

In the next data set the target is T1, Bovine Brain MAO A (Bos taurus, UniProt P21398).
T1 construct: in vitro activity of MAO from bovine brain mitochondria; from tissue; host or cells: bovine brain mitochondria
T1 sequence (P21398 1-527): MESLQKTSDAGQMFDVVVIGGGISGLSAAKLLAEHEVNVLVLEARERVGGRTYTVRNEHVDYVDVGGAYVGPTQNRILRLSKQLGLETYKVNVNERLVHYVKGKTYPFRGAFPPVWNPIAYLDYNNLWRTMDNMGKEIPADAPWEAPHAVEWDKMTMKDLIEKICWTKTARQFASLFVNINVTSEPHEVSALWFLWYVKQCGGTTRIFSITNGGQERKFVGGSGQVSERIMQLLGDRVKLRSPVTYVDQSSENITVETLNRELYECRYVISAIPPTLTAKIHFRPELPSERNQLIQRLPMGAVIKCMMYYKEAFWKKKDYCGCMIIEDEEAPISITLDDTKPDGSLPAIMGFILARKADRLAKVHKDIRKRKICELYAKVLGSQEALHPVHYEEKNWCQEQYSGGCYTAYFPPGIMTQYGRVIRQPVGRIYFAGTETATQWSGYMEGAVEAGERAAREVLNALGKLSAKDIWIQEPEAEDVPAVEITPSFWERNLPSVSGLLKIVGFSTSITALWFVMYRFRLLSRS
Nature of the data set: In vitro inhibition of MAO from bovine brain mitochondria, tyramine as substrate (form A). Format: biochemical. The conditions noted are these: pI50 = -log [I50], molar. The text has this: The following table illustrates the structure of particular compounds of the invention (1). It also gives specific pI50 values where pI50 =-log [I50 ] where [I50 ] is the molar concentration of test compound which inhibits 50% of the in vitro activity of MAO from bovine brain mitochondria using tyramine as substrate.

The test system of another data set is reuptake of 5-HT. Nature of the data set: Reuptake of 5-HT in vitro, crude synaptosomal preparation. Type of data set: biochemical, rat. As to the method: Influence on the reuptake of monoamines "in vitro" was also studied. The effect of the compounds on the reuptake of 5-HT noradrenaline and dopamine was studied using Wistar male rats (350±2.5 g). They were kept under controlled light and temperature conditions and fed "ad libitum" until killed. The animals were killed by decapitation and brains were frozen and stored at -20° C. prior to analysis. Brains were dissected on an ice-filled petri dish. The cortices for 5-HT and noradrenaline assay and striatum (including caudate nucleus, putamen and globus pallidus) for dopamine assay were immediately weighed and homogenized. […] All drugs used in the study were dissolved in the incubation medium in a concentration range 10^-4 to 10^-8 M and were preincubated with the crude synaptosomal preparation obtained from the treated brains, for 5 min. at 37° C. or 0° C. before the addition of the labelled substrate.

The test system of the next data set is rat cerebral MAO A. The data set is described as follows: Ex vivo inhibition of rat cerebral MAO A after single dosing. Format: in vivo. As to the method:
(§1) 2. "Ex vivo inhibition" of rat cerebral MAO A and B after single dosing.
This gives the degree of inhibition in vivo of both forms of the enzyme and variation of this inhibition with time after treatment with a single dose. […] Animals were sacrificed by decapitation 24 h. and 7 days after treatment and brains were removed and homogenized. Enzymatic activities determined in treated animals, were compared with the activities in control animals (100%).

For a further data set, the system named is α-adrenergic receptors. Nature of the data set: Effects of chronic treatment on α2 receptors. Conditions: chronic administration in the rat. Format: in vivo. As to the method: Effects of chronic treatment on α2 -, β- and 5-HT2 receptors. The test compounds, at a dose of 10 mg/kg/day i.p., were administered for 21 days to Wistar male rats (250±2.4 g). After treatment the animals were killed, brains were dissected and cortices were scraped from the dorsal surface of the […]. ^3 H UK 14304, ^3 H Dihydroalprenalol and ^3 H Ketanserin were used as ligands in the binding studies.

Data set [3] relates to brain, duodenum and liver MAO B. The data set is described as follows: In vivo inhibition of MAO B of different tissues after chronic treatment. Also on record: species or system rat. As to the method:
4. "In vivo" inhibition of MAO A and B of different tissues after chronic treatment.
In order to evaluate the effect of compounds in a chronic treatment, the inhibitory activity on brain, duodenum and liver MAO A and B has been studied "in vivo". Wistar male rats were treated at two dose levels, 0.1 and 0.25 mg/kg i.p. for 15 and 21 days. Control rats received similar amounts of saline solution.

A short description of data set [4]: "Cheese effect" by tyramine potentiation. The conditions noted are these: in vivo. As to the method: The secondary effects were studied mainly on the cardiovascular system, and the effects on the arterial pressure, heart rate and rhythm, P-R interval and isolated organ (rabbit aortic rings and isolated atria), were evaluated both after acute and chronic treatments. In the same way, the "cheese effect" was studied by means of the tyramine potentiation.

The test system of a further data set is rat cerebral MAO A and B. Nature of the data set: MAO inhibitory activity at the biochemical level (reversibility and selectivity).
Excerpt: To determine MAO inhibitory activity at the biochemical level the following tests are used:
1. "In vitro inhibition" of rat cerebral MAO A and B giving I50 values for the two forms of the enzyme. Male Wistar rats (200 g) were used. Brains were obtained by decapitation and were homogenized. As substrates of the enzymes ^14 C-5-hydroxytryptamine oxalate 54 mCi/mmol and ^14 C-β-phenylethylamine were used. The residual enzymatic activities were referred to the activities in absence of MAO inhibitor (100%).
as §1
This gives the degree of inhibition in vivo of both forms of the enzyme and variation of this inhibition with time after treatment with a single dose. The compounds were administered intraperitoneally to male Wistar rats (175 g.) at a dose of 5 mg/kg in 1 ml/kg (H2 O). Animals were sacrificed by decapitation 24 h. and 7 days after treatment and brains were removed and homogenized. Enzymatic activities determined in treated animals, were compared with the activities in control animals (100%).
3. "Ex vivo" inhibition of rat cerebral MAO A and B after repeated dosing.
Male Wistar rats (175 g) were used.
The compounds were administered once daily intraperitonally for 7 days at a dose of 0.5 and 1 mg/kg in 1 ml/kg […]. […]

As to `C#CCN(C)Cc1cc2cc(OC)ccc2n1C` [(l), N-methyl-N-propargyl-2-(1-methyl-5-methoxy-indolyl)methylamine], the minimal effective dose in data set [1] (acute treatment, read-out: Porsolt's test MED, acute) stood at 50 mg/kg; in data set [1] (chronic treatment, read-out: Porsolt's test MED, chronic), 20 mg/kg. Moreover, the “Persistence of activity in Porsolt's test” value in [1] (in vivo) was “at least 24 hours”. In data set [2] (acute treatment), the “Hypoactivity by clonidine, acute treatment” value is reported as “not modifying it”. Moreover, the “Hypoactivity by clonidine, chronic treatment” value in [2] (chronic treatment (5 days)) is “antagonized”. Also, the midpoint of inhibition against Bovine Brain MAO A, the IC50, lay at 8.91 nM. In the data set on reuptake of 5-HT, the “Inhibition of the reuptake of 5-HT” value is “potent inhibitor”. The “Potency as inhibitor of 5-HT reuptake relative to chlorimipramine or imipramine” value in the data set on reuptake of 5-HT was “much higher”. For the same compound, the “Persistence of MAO A inhibitory effect” value with rat cerebral MAO A (dose increased (5 mg/kg)) is recorded as “observed even after 7 days”. In addition, the “Onset of MAO A inhibitory effect” value with rat cerebral MAO A (single dose (1 mg/kg)) is recorded as “reached soon after the administration of a single dose”. Besides, the “Modifications on α-adrenergic receptors” value in the data set with α-adrenergic receptors is “not statistically significant”. Moreover, the “Activity on hepatic MAO B” value in data set [3] (hepatic) is recorded as “very low activity”. Moreover, in [3] (intestinal), the “Effect on intestinal MAO B” value is listed as “without any effect”. Further, the “"Cheese effect"” value in data set [4] is listed as “some "cheese effect"”. For the same compound, the “Type of MAO inhibition (reversibility, selectivity)” value in the data set on rat cerebral MAO A and B was “irreversible and selective inhibitor of MAO A”.

As a reminder, the IC50 is the concentration at which inhibition is half-maximal. A lower IC50 goes with higher potency.
